Reference: the supplement of paper PMC11208160
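Note: IS621 bridge recombinase in Escherichia coli cells against a fixed T5 target plasmid.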

Assay: recombinant UMI read abundance after kanamycin selection (control-corrected) (log10(CPM+1)); higher = more efficient recombination; extreme values may be limits of the assay; sequences stand for … in AGTGCAGAGAAAATCGGCCAGTTTTCTCTGCCTGCAGTCCGCATGCCGTGGGACCCCTTGGGTTCTAACCTGTTGCCTAGATTTATGCAGCGGACTGCCTTTCTCCCAAAGTGATAAACCGG…AGGTTGGTTTCACT; site = the 11-nt donor
Outline: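 Values, expressed as log10(CPM+1), derive from recombinant UMI counts converted to CPM, averaged across replicates and scaled by control-derived factors. Plating was with IPTG (0.07 mM) plus kanamycin or unselected, two replicates each. The screen pooled donor and donor-binding-loop pairs for the IS621 bridge recombinase in Escherichia coli.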
For “CTAGGTACATGGACCGGTTTTCCCGGTAATCCGTATTTGAC (site GTAGGTACTGT)”, the “recombinant UMI read abundance (log10)” value was 0.
In the case of “CTAGGTACATGGACCGGTTTTCCCGGTAATCCGTATTTGAC (site TTAGGTACTGT)”, the “recombinant UMI read abundance (log10)” value is reported as 0.
For “CTAGTAACATGGACCGGTTTTCCCGGTAATCCGTATTTGAG (site CTAGTAACTCT)”, the “recombinant UMI read abundance (log10)” value was 2.89.
In the case of “CTAGTAACATGGACCGGTTTTCCCGGTAATCCGTATTTGAG (site CTAGTATCTGT)”, the “recombinant UMI read abundance (log10)” value is reported as 0.
In the case of “CTAGTAACATGGACCGGTTTTCCCGGTAATCCGTATTTGTC (site CTAGTAACTGA)”, the “recombinant UMI read abundance (log10)” value is reported as 2.78.
For “CTAGTAACATGGACCGGTTTTCCCGGTAATCCGTATTTGTC (site CTAGTATCTGT)”, the “recombinant UMI read abundance (log10)” value was 0.
With “CTAGTACCATGGACCGGTTTTCCCGGTAATCCGTATTTGAC (site CTAGTAACTGT)” the “recombinant UMI read abundance (log10)” value was 0.
In the case of “CTAGTACCATGGACCGGTTTTCCCGGTAATCCGTATTTGAC (site CTAGTACCTGT)”, the “recombinant UMI read abundance (log10)” value is reported as 0.
In the case of “CTAGTACCATGGACCGGTTTTCCCGGTAATCCGTATTTGAC (site CTAGTAGCTGT)”, the “recombinant UMI read abundance (log10)” value is reported as 0.415.
With “CTAGTACCATGGACCGGTTTTCCCGGTAATCCGTATTTGAC (site CTAGTATCTGT)” the “recombinant UMI read abundance (log10)” value was 2.88.
For “CTAGTATCATGGACCGGTTTTCCCGGTAATCCGTATTTGAA (site CTAGTATCTAT)”, the “recombinant UMI read abundance (log10)” value was 2.59.
With “CTAGTATCATGGACCGGTTTTCCCGGTAATCCGTATTTGAA (site CTAGTATCTCT)” the “recombinant UMI read abundance (log10)” value was 2.4.
For “CTAGTATCATGGACCGGTTTTCCCGGTAATCCGTATTTGAA (site CTAGTATCTGT)”, the “recombinant UMI read abundance (log10)” value was 1.91.
In the case of “CTAGTATCATGGACCGGTTTTCCCGGTAATCCGTATTTGAA (site CTAGTATCTTT)”, the “recombinant UMI read abundance (log10)” value is reported as 2.92.
For “CTAGTATCATGGACCGGTTTTCCCGGTAATCCGTATTTGAG (site CTAGTATCTAT)”, the “recombinant UMI read abundance (log10)” value was 2.35.
In the case of “CTAGTATCATGGACCGGTTTTCCCGGTAATCCGTATTTGAG (site CTAGTATCTCT)”, the “recombinant UMI read abundance (log10)” value is reported as 2.61.
In the case of “CTAGTATCATGGACCGGTTTTCCCGGTAATCCGTATTTGAG (site CTAGTATCTGT)”, the “recombinant UMI read abundance (log10)” value is reported as 1.68.
For “CTAGTATCATGGACCGGTTTTCCCGGTAATCCGTATTTGAG (site CTAGTATCTTT)”, the “recombinant UMI read abundance (log10)” value was 2.29.
With “CTAGTATCATGGACCGGTTTTCCCGGTAATCCGTATTTGTG (site CTAGTATCTCA)” the “recombinant UMI read abundance (log10)” value was 2.97.
In the case of “CTAGTATCATGGACCGGTTTTCCCGGTAATCCGTATTTGTG (site CTAGTATCTGT)”, the “recombinant UMI read abundance (log10)” value is reported as 0.
For “CTAGTCACATGGACCGGTTTTCCCGGTAATCCGTATTTGGG (site CAAGTCACTCC)”, the “recombinant UMI read abundance (log10)” value was 0.00773.
For “CTAGTCACATGGACCGGTTTTCCCGGTAATCCGTATTTGGG (site CCAGTCACTCC)”, the “recombinant UMI read abundance (log10)” value was 0.0093.
For “CTAGTCACATGGACCGGTTTTCCCGGTAATCCGTATTTGGG (site CGAGTCACTCC)”, the “recombinant UMI read abundance (log10)” value was 0.00732.
With “CTAGTCACATGGACCGGTTTTCCCGGTAATCCGTATTTGGG (site CTAGTCACTCC)” the “recombinant UMI read abundance (log10)” value was 0.00791.
In the case of “CTAGTGCCATGGACCGGTTTTCCCGGTAATCCGTATTTGAC (site CTAGTATCTGT)”, the “recombinant UMI read abundance (log10)” value is reported as 0.948.
With “CTAGTGCCATGGACCGGTTTTCCCGGTAATCCGTATTTGAC (site CTAGTGCCTGT)” the “recombinant UMI read abundance (log10)” value was 0.95.
For “CTAGTTTCATGGACCGGTTTTCCCGGTAATCCGTATTTGAC (site CTAGTATCTGT)”, the “recombinant UMI read abundance (log10)” value was 2.19.
In the case of “CTAGTTTCATGGACCGGTTTTCCCGGTAATCCGTATTTGAC (site CTAGTCTCTGT)”, the “recombinant UMI read abundance (log10)” value is reported as 1.74.
With “CTAGTTTCATGGACCGGTTTTCCCGGTAATCCGTATTTGAC (site CTAGTGTCTGT)” the “recombinant UMI read abundance (log10)” value was 0.
With “CTAGTTTCATGGACCGGTTTTCCCGGTAATCCGTATTTGAC (site CTAGTTTCTGT)” the “recombinant UMI read abundance (log10)” value was 2.05.
For “CTATAACCATGGACCGGTTTTCCCGGTAATCCGTATTTGGA (site CTATAACCTTC)”, the “recombinant UMI read abundance (log10)” value was 0.0031.
In the case of “CTATCATCATGGACCGGTTTTCCCGGTAATCCGTATTTGCT (site CAATCATCTAG)”, the “recombinant UMI read abundance (log10)” value is reported as 0.957.
In the case of “CTATCATCATGGACCGGTTTTCCCGGTAATCCGTATTTGCT (site CCATCATCTAG)”, the “recombinant UMI read abundance (log10)” value is reported as 0.932.
In the case of “CTATCATCATGGACCGGTTTTCCCGGTAATCCGTATTTGCT (site CGATCATCTAG)”, the “recombinant UMI read abundance (log10)” value is reported as 0.
With “CTATCATCATGGACCGGTTTTCCCGGTAATCCGTATTTGCT (site CTATCATCTAG)” the “recombinant UMI read abundance (log10)” value was 2.06.
For “CTATCGACATGGACCGGTTTTCCCGGTAATCCGTATTTGTT (site CAATCGACTAA)”, the “recombinant UMI read abundance (log10)” value was 0.0124.
In the case of “CTATCGACATGGACCGGTTTTCCCGGTAATCCGTATTTGTT (site CCATCGACTAA)”, the “recombinant UMI read abundance (log10)” value is reported as 0.0135.
In the case of “CTATCGACATGGACCGGTTTTCCCGGTAATCCGTATTTGTT (site CGATCGACTAA)”, the “recombinant UMI read abundance (log10)” value is reported as 0.0084.
With “CTATCGACATGGACCGGTTTTCCCGGTAATCCGTATTTGTT (site CTATCGACTAA)” the “recombinant UMI read abundance (log10)” value was 1.1.
In the case of “CTATGACCATGGACCGGTTTTCCCGGTAATCCGTATTTGAG (site CTATGACCTCT)”, the “recombinant UMI read abundance (log10)” value is reported as 0.00436.
For “CTATGATCATGGACCGGTTTTCCCGGTAATCCGTATTTGAC (site CTAGTATCTGT)”, the “recombinant UMI read abundance (log10)” value was 0.
In the case of “CTATGATCATGGACCGGTTTTCCCGGTAATCCGTATTTGAC (site CTATGATCTGT)”, the “recombinant UMI read abundance (log10)” value is reported as 2.73.
With “CTATGCACATGGACCGGTTTTCCCGGTAATCCGTATTTGTA (site ATATGCACTTA)” the “recombinant UMI read abundance (log10)” value was 0.00544.
For “CTATGCACATGGACCGGTTTTCCCGGTAATCCGTATTTGTA (site CTATGCACTTA)”, the “recombinant UMI read abundance (log10)” value was 1.82.
For “CTATGCACATGGACCGGTTTTCCCGGTAATCCGTATTTGTA (site GTATGCACTTA)”, the “recombinant UMI read abundance (log10)” value was 0.00869.
For “CTATGCACATGGACCGGTTTTCCCGGTAATCCGTATTTGTA (site TTATGCACTTA)”, the “recombinant UMI read abundance (log10)” value was 0.013.
In the case of “CTATGTTCATGGACCGGTTTTCCCGGTAATCCGTATTTGTC (site CTATGTTCTGA)”, the “recombinant UMI read abundance (log10)” value is reported as 2.29.
In the case of “CTATTATCATGGACCGGTTTTCCCGGTAATCCGTATTTGAA (site CTATTATCTTT)”, the “recombinant UMI read abundance (log10)” value is reported as 1.79.
With “CTATTATCATGGACCGGTTTTCCCGGTAATCCGTATTTGGC (site CTAGTATCTGT)” the “recombinant UMI read abundance (log10)” value was 0.
In the case of “CTATTATCATGGACCGGTTTTCCCGGTAATCCGTATTTGGC (site CTATTATCTGC)”, the “recombinant UMI read abundance (log10)” value is reported as 2.56.
In the case of “CTATTTCCATGGACCGGTTTTCCCGGTAATCCGTATTTGCG (site CTATTTCCTCG)”, the “recombinant UMI read abundance (log10)” value is reported as 0.264.
With “CTCAAATCATGGACCGGTTTTCCCGGTAATCCGTATTTGAA (site CTCAAATCTTT)” the “recombinant UMI read abundance (log10)” value was 0.789.
For “CTCAATCCATGGACCGGTTTTCCCGGTAATCCGTATTTGTT (site CGGAATCCTAA)”, the “recombinant UMI read abundance (log10)” value was 0.
For “CTCAATCCATGGACCGGTTTTCCCGGTAATCCGTATTTGTT (site CTCAATCCTAA)”, the “recombinant UMI read abundance (log10)” value was 1.41.
For “CTCAATGCATGGACCGGTTTTCCCGGTAATCCGTATTTGGG (site CTCAATGCTCC)”, the “recombinant UMI read abundance (log10)” value was 0.
For “CTCAGATCATGGACCGGTTTTCCCGGTAATCCGTATTTGCA (site CTCAGATCTTG)”, the “recombinant UMI read abundance (log10)” value was 1.82.
For “CTCCAGTCATGGACCGGTTTTCCCGGTAATCCGTATTTGAG (site CTCCAGTCTCT)”, the “recombinant UMI read abundance (log10)” value was 0.842.
For “CTCCCAACATGGACCGGTTTTCCCGGTAATCCGTATTTGAG (site CTCCCAACTCT)”, the “recombinant UMI read abundance (log10)” value was 0.687.
In the case of “CTCCCAACATGGACCGGTTTTCCCGGTAATCCGTATTTGAG (site CTCCCCACTCT)”, the “recombinant UMI read abundance (log10)” value is reported as 0.00702.
For “CTCCCAACATGGACCGGTTTTCCCGGTAATCCGTATTTGAG (site CTCCCGACTCT)”, the “recombinant UMI read abundance (log10)” value was 0.0167.
In the case of “CTCCCAACATGGACCGGTTTTCCCGGTAATCCGTATTTGAG (site CTCCCTACTCT)”, the “recombinant UMI read abundance (log10)” value is reported as 0.00578.
With “CTCCCTCCATGGACCGGTTTTCCCGGTAATCCGTATTTGAG (site CTCCCTACTCT)” the “recombinant UMI read abundance (log10)” value was 0.00615.
For “CTCCCTCCATGGACCGGTTTTCCCGGTAATCCGTATTTGAG (site CTCCCTCCTCT)”, the “recombinant UMI read abundance (log10)” value was 0.0401.
In the case of “CTCCCTCCATGGACCGGTTTTCCCGGTAATCCGTATTTGAG (site CTCCCTGCTCT)”, the “recombinant UMI read abundance (log10)” value is reported as 0.009.
In the case of “CTCCCTCCATGGACCGGTTTTCCCGGTAATCCGTATTTGAG (site CTCCCTTCTCT)”, the “recombinant UMI read abundance (log10)” value is reported as 0.0108.
For “CTCCTAACATGGACCGGTTTTCCCGGTAATCCGTATTTGGA (site CTACTAACTTC)”, the “recombinant UMI read abundance (log10)” value was 0.00356.
With “CTCCTAACATGGACCGGTTTTCCCGGTAATCCGTATTTGGA (site CTCCTAACTTC)” the “recombinant UMI read abundance (log10)” value was 0.655.
With “CTCCTAACATGGACCGGTTTTCCCGGTAATCCGTATTTGGA (site CTGCTAACTTC)” the “recombinant UMI read abundance (log10)” value was 0.0178.
